In US20250129055A1, “GLUCOSIDE DERIVATIVE, AND PREPARATION METHOD THEREFOR AND APPLICATION THEREOF” (BEIJING INCREASE INNOVATIVE DRUG CO., LTD., priority 2020, published 2025):
pIC50: −log10 of the molar value.

Target: SGLT2 (Homo sapiens (Human), UniProt P31639)
Experiment: In vitro SGLT2 inhibitory activity: 1-NBDG uptake by CHO-SGLT2 cells
Type: cell-based
Conditions: for pIC50: CHO-SGLT2 cells, 1-NBDG uptake, read-out: IC50 inhibiting SGLT2
Method: The effect of the compounds on SGLT2-mediated glucose uptake was investigated by establishing an SGLT2 overexpression cell model and using the fluorescent glucose (2-deoxy-1-[(7-nitro-2,1,3-benzoxadiazol-4-yl)amino]-D-glucose, 1-NBDG) tracer method to screen out candidate compounds with SGLT2 inhibitory activity.
The humanized SGLT2 overexpression cells (CHO-SGLT2) constructed from Chinese hamster ovary (CHO) cells were cultured in 1640 medium (Gibco) containing 10% fetal bovine serum (Gibco, 10270), subcultured at a ratio of 1:3, and replaced with new culture medium 3 times every week. Fluorescence detection cell culture plates and other culture flasks were purchased from Corning Company. […] Appropriate amounts of all compounds were weighed, prepared into 100 mM stock solutions with DMSO, and stored at 4° C. in the dark.
Before the 1-NBDG uptake test, CHO-SGLT2 cells were digested and seeded in a 96-well cell culture plate with a cell number of 40,000/well. After the cells were cultured for 48 h, the medium was discarded, and 100 μl of choline buffer was added to each well. After the cells were starved at 37° C. for 30 min, the choline buffer was discarded and 100 μl of the newly prepared Na^+ sodium buffer containing […] 1-NBDG and the test compounds (Compound) was added. The solvent DMSO was used as the negative control (Control) for the test compounds.
The Na^+ sodium buffer without 1-NBDG was used as the blank control (Blank). After 1 h of culture, the incubation solution was discarded. The cells were washed with choline buffer solution 3 times, and then 50 μl of neutral lysate was added to each well to lyse the cells on ice for 10 min. The fluorescence value of each well was detected using a multi-functional microplate reader at […].
At least 3 experimental replicates were set for each compound at indicated concentrations, and the data were expressed as mean±SEM. Uptake amount of 1-NBDG by cells=fluorescence value1-NBDG-fluorescence valueBlank. Inhibition rate on uptake amount of SGLT2 glucose (%)=(uptake amountcontrol−uptake amountcompound)/uptake amountcontrol×100%. Concentration-inhibition rate curves were plotted using Graphpad Prism software, and IC50 values were calculated accordingly.

Sequence of SGLT2 (P31639 whole entry): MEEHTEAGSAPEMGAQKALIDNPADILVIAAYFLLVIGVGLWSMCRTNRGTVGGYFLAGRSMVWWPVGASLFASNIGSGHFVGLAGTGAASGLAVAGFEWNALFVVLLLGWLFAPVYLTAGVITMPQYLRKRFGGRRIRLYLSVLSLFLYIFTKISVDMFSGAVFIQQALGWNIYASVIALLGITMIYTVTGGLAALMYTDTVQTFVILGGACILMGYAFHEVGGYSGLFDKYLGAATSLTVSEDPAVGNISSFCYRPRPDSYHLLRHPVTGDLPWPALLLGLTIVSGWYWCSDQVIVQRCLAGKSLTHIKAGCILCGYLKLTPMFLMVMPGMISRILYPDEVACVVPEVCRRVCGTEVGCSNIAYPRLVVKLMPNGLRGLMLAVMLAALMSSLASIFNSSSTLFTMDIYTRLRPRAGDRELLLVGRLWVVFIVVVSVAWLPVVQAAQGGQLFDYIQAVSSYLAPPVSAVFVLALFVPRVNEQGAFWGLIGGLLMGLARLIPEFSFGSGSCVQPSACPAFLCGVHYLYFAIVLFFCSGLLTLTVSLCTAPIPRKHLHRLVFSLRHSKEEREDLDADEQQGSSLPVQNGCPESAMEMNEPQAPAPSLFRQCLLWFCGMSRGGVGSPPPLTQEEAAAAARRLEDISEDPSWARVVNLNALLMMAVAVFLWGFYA

Work on `CS[C@H]1O[C@@H](c2ccc(C)c(Cc3ccc4c(c3)CCCO4)c2)[C@H](O)[C@@H](O)[C@@H]1O` [Compound 8] yielded a pIC50 of 9.45.

`CS[C@H]1O[C@@H](c2cc3c(c(Cc4ccc5c(c4)OCCO5)c2)CCC3)[C@H](O)[C@@H](O)[C@@H]1O` [Compound 5] gave a pIC50 of 8.65.

With `CS[C@H]1O[C@@H](c2ccc(C)c(Cc3ccc4c(c3)CC4)c2)[C@H](O)[C@@H](O)[C@@H]1O` [Compound 12] the pIC50 was 8.99.

For `CCOc1ccc(Oc2cc([C@H]3O[C@H](CO)[C@@H](O)[C@H](O)[C@H]3O)ccc2Cl)cc1` [Compound 3, (2R,3R,4R,5S,6R)-2-[4-chloro-3-(4-ethoxyphenoxy)phenyl]-6-(hydroxymethyl)oxane-3,4,5-triol], the pIC50 was 8.17, the “Inhibition rate of compounds on SGLT2 (%)” value (“Inhibition rate … (%)” below) (compound concentration 1 × 10^−5 mol/L) was 96.4 ± 8.4% and the “Inhibition rate … (%)” value (compound concentration 5 × 10^−7 mol/L) was 78.7 ± 1.9%. The “Inhibition rate … (%)” value (compound concentration 5 × 10^−8 mol/L) was 71.7 ± 1.7%, the “Inhibition rate … (%)” value (compound concentration 5 × 10^−9 mol/L) was 42.8 ± 2.3% and the “Inhibition rate … (%)” value (compound concentration 5 × 10^−10 mol/L) was 8.7 ± 2.1%. For the same compound, the “Inhibition rate … (%)” value (compound concentration 5 × 10^−11 mol/L) was 3.7 ± 4.2%.

Compound `OC[C@H]1O[C@@H](c2ccc(F)c(Cc3ccc4c(c3)OCCO4)c2)[C@H](O)[C@@H](O)[C@@H]1O` [Compound 27] has a pIC50 of 8.48.
